Some test systems named below: DMS 273 small cell lung; M19-MEL melanoma; HCC-2998 colon; DMS 114 small cell lung; IGROV1 ovarian; HOP-18 NSCLC; HCT-15 colon; ACHN renal; KM20L2 colon; SF-539 CNS; NCI-H226 lung; DLD-1 colon; HT29 colon; SNB-78 CNS; UACC-62 melanoma; LXFL 529 NSCLC; MDA-N.
Common to all, as to experiment: NCI anticancer screen, dose series, 48 h

Each structure is given as a SMILES string.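 The compound was tested at five concentrations on cells cultured in 96-well plates, with a 48-hour exposure period. TGI: concentration producing complete growth inhibition.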 Some results are limits rather than exact numbers.

For eight compounds, TGI results are on record in PubChem BioAssay (NCI).

Regarding `CCC(=O)NCC1(c2c[nH]c3ccccc23)SCCS1`, the TGI in the test with DMS 273 small cell lung, in the test with M19-MEL melanoma, in the test on HCC-2998 colon, in the test on DMS 114 small cell lung, in the test with IGROV1 ovarian and in the test on HOP-18 NSCLC was over 100 µM each time. For the same compound, the TGI with HCT-15 colon, in the test with ACHN renal, in the test with KM20L2 colon, with SF-539 CNS, in the test with NCI-H226 lung and in the test on DLD-1 colon was over 100 µM throughout. Besides, the TGI in the test with HT29 colon, in the test on SNB-78 CNS, with UACC-62 melanoma and with LXFL 529 NSCLC was over 100 µM each time.

`O=C(Cc1ccccc1)NN1C(=O)C(Cl)C1c1cc(Br)cc(Br)c1O` (configuration not stated): the TGI with DMS 273 small cell lung is 65.2 µM; in the test with M19-MEL melanoma it was 63.2 µM; in the test with HCC-2998 colon it was 31.1 µM; in the test on DMS 114 small cell lung it was 17.8 µM; in the test on IGROV1 ovarian, 58.9 µM; in the test on HOP-18 NSCLC, 31.4 µM. The TGI with HCT-15 colon was over 100 µM; with ACHN renal it was over 100 µM; in the test with KM20L2 colon, over 100 µM; with NCI-H226 lung, 36.9 µM; in the test with DLD-1 colon it was over 100 µM; in the test on HT29 colon, 63.4 µM. Also, the TGI in the test on SNB-78 CNS amounted to 83 µM; in the test with UACC-62 melanoma, 61.6 µM; in the test with LXFL 529 NSCLC, 50 µM.

For `CC1=CC(=O)c2cccc(O)c2C1=O`, the TGI in the test on DMS 273 small cell lung came to 5.01 µM; in the test with M19-MEL melanoma, 4.05 µM; with HCC-2998 colon, 16.8 µM; in the test on DMS 114 small cell lung it was 7.89 µM; with IGROV1 ovarian it was 26 µM; in the test on HOP-18 NSCLC, 3.07 µM. Moreover, the TGI in the test with HCT-15 colon was determined as 3.04 µM; with ACHN renal it was 3.17 µM; with KM20L2 colon, 41.6 µM; in the test with SF-539 CNS, 12.3 µM; with NCI-H226 lung it was 14.4 µM; in the test with MDA-N it was 3.34 µM. Further, the TGI with HT29 colon is 10.4 µM; with SNB-78 CNS it was over 62.4 µM; in the test with UACC-62 melanoma it was 3.68 µM; in the test with LXFL 529 NSCLC, 3.06 µM.

On to `CC(=O)C1CC2(c3ccccc3)C(=O)c3ccccc3N2O1` (configuration not stated), for which the TGI in the test with DMS 273 small cell lung, with M19-MEL melanoma, with HCC-2998 colon, in the test with DMS 114 small cell lung, with IGROV1 ovarian and with HOP-18 NSCLC was over 100 µM each time. In addition, the TGI in the test with HCT-15 colon, with ACHN renal, with KM20L2 colon, in the test on SF-539 CNS, in the test on NCI-H226 lung and in the test with DLD-1 colon was over 100 µM each time. In addition, the TGI with HT29 colon, with SNB-78 CNS, in the test on UACC-62 melanoma and in the test on LXFL 529 NSCLC was over 100 µM throughout.

In the case of `CCCN(CCC)C(=O)Cc1c2n(c3ccccc13)CCCc1ccccc1-2`, the TGI in the test with DMS 273 small cell lung is 23.2 µM; in the test with M19-MEL melanoma, 29.5 µM; in the test with HCC-2998 colon, 25.9 µM; in the test with DMS 114 small cell lung, 24.1 µM; in the test with HOP-18 NSCLC, 30.3 µM; with HCT-15 colon it was 23.8 µM. Moreover, the TGI amounted to 25.1 µM in the test on ACHN renal; 27.9 µM with KM20L2 colon; 28.6 µM with SF-539 CNS; 28.5 µM in the test on NCI-H226 lung; 26.5 µM with DLD-1 colon; 26 µM in the test with HT29 colon. The TGI came out at 27.6 µM in the test on SNB-78 CNS, 23 µM in the test on UACC-62 melanoma and 26.6 µM in the test on LXFL 529 NSCLC.

For the compound `COc1ccc(OC)c2c1C(=O)C(Cl)=C(Cl)C2=O`, the TGI with DMS 273 small cell lung was 20.1 µM; with M19-MEL melanoma, 16.2 µM; with HCC-2998 colon, 31.2 µM; in the test with DMS 114 small cell lung it was 4.76 µM; with IGROV1 ovarian, 31.1 µM; with HOP-18 NSCLC it was 12.4 µM. Besides, the TGI with HCT-15 colon was determined as 10.7 µM; in the test on ACHN renal it was 10.9 µM; with KM20L2 colon, 22.3 µM; in the test on SF-539 CNS, 11.6 µM; in the test with NCI-H226 lung, 42.2 µM; in the test with MDA-N it was 4.19 µM. The TGI with DLD-1 colon was determined as 11.8 µM; with HT29 colon, 15.5 µM; in the test on SNB-78 CNS, 15.8 µM; in the test on UACC-62 melanoma it was 6.9 µM; with LXFL 529 NSCLC, 4.74 µM.

Take `CSc1ccc2c(cc1=O)C(NC(=O)c1cc(O)c(OC(=O)O)c(O)c1)CCc1cc(O)c(O)c(O)c1-2` (configuration not stated): the TGI with DMS 273 small cell lung was 38.6 µM; in the test on M19-MEL melanoma, 27.4 µM; in the test on HCC-2998 colon, over 90 µM; with DMS 114 small cell lung it was 36 µM; with IGROV1 ovarian it was 37.7 µM; in the test with HOP-18 NSCLC, over 90 µM. Moreover, the TGI is 34.3 µM in the test with HCT-15 colon; over 90 µM with ACHN renal; 83.2 µM with KM20L2 colon; over 90 µM in the test on SF-539 CNS; 62.3 µM in the test with NCI-H226 lung; 43.9 µM in the test with DLD-1 colon. Besides, the TGI in the test on HT29 colon was 40.2 µM; in the test with SNB-78 CNS, 81.6 µM; with UACC-62 melanoma, 30.6 µM; in the test with LXFL 529 NSCLC it was 36.9 µM.

`COc1cc([C@@H]2c3cc4c(cc3[C@@H](NC(=O)c3ccc(C(C)=O)cc3)C3COC(=O)[C@@H]32)OCO4)cc(OC)c1O` (some centres not stated): the TGI is 7.62 µM with DMS 273 small cell lung; 25.5 µM in the test on M19-MEL melanoma; 7.91 µM with HCC-2998 colon; 4.74 µM with DMS 114 small cell lung; 5.71 µM in the test on IGROV1 ovarian; over 100 µM with HOP-18 NSCLC. Further, the TGI was determined as 17.3 µM in the test on HCT-15 colon; 1.75 µM in the test with ACHN renal; 8.05 µM with KM20L2 colon; 1.89 µM in the test on SF-539 CNS; 1.93 µM in the test with NCI-H226 lung; 17.7 µM in the test with DLD-1 colon. Also, the TGI was 6.34 µM in the test on HT29 colon, 85 µM in the test with SNB-78 CNS, 2.1 µM in the test on UACC-62 melanoma and over 100 µM in the test with LXFL 529 NSCLC.
